Results on 19 molecules are retold here after the supplement of paper PMC8967900.
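Note: ALL cell lines in 384-well plates, five doses spanning 10,000-fold, each plate scaled between vehicle and 100 µmol/L benzalkonium chloride controls, sDSS an adapted area-under-curve metric.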

The subject of the first test is P30-OHKUBO. Description: selective drug sensitivity score (sDSS, relative to normal bone marrow) (sDSS (score)); higher = more potent and effective on the cell line relative to normal bone marrow cells. As to conditions: 72 h.
In the case of `Cc1cc(Nc2ncc(Cl)c(Nc3ccccc3S(=O)(=O)C(C)C)n2)c(OC(C)C)cc1C1CCNCC1` [Ceritinib] (top concentration 2500 nM), the “selective drug sensitivity score” value is -2.44.

Consider `Cc1nc(Nc2ncc(C(=O)Nc3c(C)cccc3Cl)s2)cc(N2CCN(CCO)CC2)n1` [Dasatinib] (top concentration 1000 nM), for which the “selective drug sensitivity score” value was 6.1.

For the molecule `N[C@@H]1CCCN(c2c(/C=C3\SC(=O)NC3=O)cccc2-c2ccccc2)C1` [AZD1208] (top concentration 10000 nM), the “selective drug sensitivity score” value was -1.1.

For `CC(C)C[C@H](NC(=O)CNC(=O)c1cc(Cl)ccc1Cl)B(O)O` [Ixazomib] (top concentration 1000 nM), the “selective drug sensitivity score” value was found to be 6.66.

In the case of `C=CC(=O)N1CCC[C@@H](n2nc(-c3ccc(Oc4ccccc4)cc3)c3c(N)ncnc32)C1` [Ibrutinib] (top concentration 1000 nM), the “selective drug sensitivity score” value was found to be 1.2.

For the molecule `Cn1cnc2c(F)c(Nc3ccc(Br)cc3F)c(C(=O)NOCCO)cc21` [Binimetinib] (top concentration 1000 nM), the “selective drug sensitivity score” value is -2.22.

Turning to `COc1cc(Nc2ncc(F)c(Nc3ccc4c(n3)N(COP(=O)(O)O)C(=O)C(C)(C)O4)n2)cc(OC)c1OC` [Fostamatinib] (top concentration 2500 nM), the “selective drug sensitivity score” value turned out to be 2.96.

As to `COc1cc2c(Oc3ccc(NC(=O)C4(C(=O)Nc5ccc(F)cc5)CC4)cc3F)ccnc2cc1OCCCN1CCOCC1` [Foretinib] (top concentration 1000 nM), the “selective drug sensitivity score” value was 0.54.

Regarding `Sc1ncnc2nc[nH]c12` [Mercaptopurine] (top concentration 10000 nM), the “selective drug sensitivity score” value turned out to be 8.9.

As for `COCCNCc1ccc(-c2cc3nccc(Oc4ccc(NC(=S)NC(=O)Cc5ccc(F)cc5)cc4F)c3s2)nc1` [Glesatinib] (top concentration 2500 nM), the “selective drug sensitivity score” value was -0.76.

On to `Cn1nccc1Nc1nccc(-c2ccn([C@H](CO)c3ccc(Cl)c(F)c3)c(=O)c2)n1` [Ravoxertinib] (top concentration 10000 nM), for which the “selective drug sensitivity score” value was 3.5.

In the case of `CC1=NN(c2ccc(C(=O)O)cc2)C(=O)C1=Cc1ccc(-c2cc(C)c(C)cc2[N+](=O)[O-])o1` [C646] (top concentration 25000 nM), the “selective drug sensitivity score” value was 3.94.

Regarding `CC(C)c1cc(C(=O)N2Cc3ccc(CN4CCN(C)CC4)cc3C2)c(O)cc1O` [Onalespib] (top concentration 2500 nM), the “selective drug sensitivity score” value turned out to be 1.32.

Regarding `CCN1C(=O)CNc2ncc(-c3ccc(-c4nc[nH]n4)nc3C)nc21` [CC-115] (top concentration 10000 nM), the “selective drug sensitivity score” value was 2.94.

On to `COc1cc(N2CCC(N3CCN(C)CC3)CC2)ccc1Nc1ncc(Cl)c(Nc2ccccc2P(C)(C)=O)n1` [Brigatinib] (top concentration 1000 nM), for which the “selective drug sensitivity score” value is -3.34.

In the case of `CN1CCN(c2nc(C3=C(c4c[nH]c5ccccc45)C(=O)NC3=O)c3ccccc3n2)CC1` [Sotrastaurin] (top concentration 10000 nM), the “selective drug sensitivity score” value was 3.1.

Regarding `CCN(CC)Cc1ccc2cc(COC(=O)Nc3ccc(C(=O)NO)cc3)ccc2c1` [Givinostat] (top concentration 1000 nM), the “selective drug sensitivity score” value is 3.7.

For `CNC(=O)c1cc(Oc2ccc(NC(=O)Nc3ccc(Cl)c(C(F)(F)F)c3)cc2)ccn1` [Sorafenib] (top concentration 1000 nM), the “selective drug sensitivity score” value was determined as 2.2.

On to `COc1ccc(S(=O)(=O)Nc2cccnc2Nc2ccc(O)cc2)cc1` [ABT-751] (top concentration 10000 nM), for which the “selective drug sensitivity score” value was 11.6.

A further test has as its system RCH-ACV. Described as above. As to conditions: 72 h.
As for `Cc1cc(Nc2ncc(Cl)c(Nc3ccccc3S(=O)(=O)C(C)C)n2)c(OC(C)C)cc1C1CCNCC1` [Ceritinib] (top concentration 2500 nM), the “selective drug sensitivity score” value was -2.04.

For the molecule `Cc1nc(Nc2ncc(C(=O)Nc3c(C)cccc3Cl)s2)cc(N2CCN(CCO)CC2)n1` [Dasatinib] (top concentration 1000 nM), the “selective drug sensitivity score” value amounted to 21.5.

On to `N[C@@H]1CCCN(c2c(/C=C3\SC(=O)NC3=O)cccc2-c2ccccc2)C1` [AZD1208] (top concentration 10000 nM), for which the “selective drug sensitivity score” value stood at 0.6.

Take `CC(C)C[C@H](NC(=O)CNC(=O)c1cc(Cl)ccc1Cl)B(O)O` [Ixazomib] (top concentration 1000 nM): the “selective drug sensitivity score” value is 7.36.

Turning to `C=CC(=O)N1CCC[C@@H](n2nc(-c3ccc(Oc4ccccc4)cc3)c3c(N)ncnc32)C1` [Ibrutinib] (top concentration 1000 nM), the “selective drug sensitivity score” value amounted to 15.

As to `Cn1cnc2c(F)c(Nc3ccc(Br)cc3F)c(C(=O)NOCCO)cc21` [Binimetinib] (top concentration 1000 nM), the “selective drug sensitivity score” value was -2.22.

For `COc1cc(Nc2ncc(F)c(Nc3ccc4c(n3)N(COP(=O)(O)O)C(=O)C(C)(C)O4)n2)cc(OC)c1OC` [Fostamatinib] (top concentration 2500 nM), the “selective drug sensitivity score” value turned out to be 7.96.

For `COc1cc2c(Oc3ccc(NC(=O)C4(C(=O)Nc5ccc(F)cc5)CC4)cc3F)ccnc2cc1OCCCN1CCOCC1` [Foretinib] (top concentration 1000 nM), the “selective drug sensitivity score” value was determined as 0.44.

On to `Sc1ncnc2nc[nH]c12` [Mercaptopurine] (top concentration 10000 nM), for which the “selective drug sensitivity score” value worked out at 14.2.

With `COCCNCc1ccc(-c2cc3nccc(Oc4ccc(NC(=S)NC(=O)Cc5ccc(F)cc5)cc4F)c3s2)nc1` [Glesatinib] (top concentration 2500 nM), the “selective drug sensitivity score” value turned out to be 3.74.

As to `Cn1nccc1Nc1nccc(-c2ccn([C@H](CO)c3ccc(Cl)c(F)c3)c(=O)c2)n1` [Ravoxertinib] (top concentration 10000 nM), the “selective drug sensitivity score” value was 4.5.

For `CC1=NN(c2ccc(C(=O)O)cc2)C(=O)C1=Cc1ccc(-c2cc(C)c(C)cc2[N+](=O)[O-])o1` [C646] (top concentration 25000 nM), the “selective drug sensitivity score” value turned out to be 1.94.

With `CC(C)c1cc(C(=O)N2Cc3ccc(CN4CCN(C)CC4)cc3C2)c(O)cc1O` [Onalespib] (top concentration 2500 nM), the “selective drug sensitivity score” value amounted to 6.52.

For `CCN1C(=O)CNc2ncc(-c3ccc(-c4nc[nH]n4)nc3C)nc21` [CC-115] (top concentration 10000 nM), the “selective drug sensitivity score” value worked out at 17.5.

Take `COc1cc(N2CCC(N3CCN(C)CC3)CC2)ccc1Nc1ncc(Cl)c(Nc2ccccc2P(C)(C)=O)n1` [Brigatinib] (top concentration 1000 nM): the “selective drug sensitivity score” value was found to be 8.86.

With `CN1CCN(c2nc(C3=C(c4c[nH]c5ccccc45)C(=O)NC3=O)c3ccccc3n2)CC1` [Sotrastaurin] (top concentration 10000 nM), the “selective drug sensitivity score” value stood at 3.4.

`CCN(CC)Cc1ccc2cc(COC(=O)Nc3ccc(C(=O)NO)cc3)ccc2c1` [Givinostat] (top concentration 1000 nM): the “selective drug sensitivity score” value turned out to be 9.8.

With `CNC(=O)c1cc(Oc2ccc(NC(=O)Nc3ccc(Cl)c(C(F)(F)F)c3)cc2)ccn1` [Sorafenib] (top concentration 1000 nM), the “selective drug sensitivity score” value is 1.4.

With `COc1ccc(S(=O)(=O)Nc2cccnc2Nc2ccc(O)cc2)cc1` [ABT-751] (top concentration 10000 nM), the “selective drug sensitivity score” value came out at 11.7.

In the next test the test system is REH. The description is as above. The settings on record: 72 h.
`Cc1cc(Nc2ncc(Cl)c(Nc3ccccc3S(=O)(=O)C(C)C)n2)c(OC(C)C)cc1C1CCNCC1` [Ceritinib] (top concentration 2500 nM): the “selective drug sensitivity score” value was -2.84.

Take `Cc1nc(Nc2ncc(C(=O)Nc3c(C)cccc3Cl)s2)cc(N2CCN(CCO)CC2)n1` [Dasatinib] (top concentration 1000 nM): the “selective drug sensitivity score” value is -2.8.

Turning to `N[C@@H]1CCCN(c2c(/C=C3\SC(=O)NC3=O)cccc2-c2ccccc2)C1` [AZD1208] (top concentration 10000 nM), the “selective drug sensitivity score” value stood at 5.5.

For the molecule `CC(C)C[C@H](NC(=O)CNC(=O)c1cc(Cl)ccc1Cl)B(O)O` [Ixazomib] (top concentration 1000 nM), the “selective drug sensitivity score” value was 6.76.

For the molecule `C=CC(=O)N1CCC[C@@H](n2nc(-c3ccc(Oc4ccccc4)cc3)c3c(N)ncnc32)C1` [Ibrutinib] (top concentration 1000 nM), the “selective drug sensitivity score” value was 0.

Take `Cn1cnc2c(F)c(Nc3ccc(Br)cc3F)c(C(=O)NOCCO)cc21` [Binimetinib] (top concentration 1000 nM): the “selective drug sensitivity score” value was 4.48.

Consider `COc1cc(Nc2ncc(F)c(Nc3ccc4c(n3)N(COP(=O)(O)O)C(=O)C(C)(C)O4)n2)cc(OC)c1OC` [Fostamatinib] (top concentration 2500 nM), for which the “selective drug sensitivity score” value was -1.84.

Turning to `COc1cc2c(Oc3ccc(NC(=O)C4(C(=O)Nc5ccc(F)cc5)CC4)cc3F)ccnc2cc1OCCCN1CCOCC1` [Foretinib] (top concentration 1000 nM), the “selective drug sensitivity score” value was determined as 0.24.

On to `Sc1ncnc2nc[nH]c12` [Mercaptopurine] (top concentration 10000 nM), for which the “selective drug sensitivity score” value is 17.
